Experimental data from article PMC6446940 (ChemMedChem, 2018).
Where two headings read alike, the source gives them in different places.

Assays:
[1] = test system: HIV-1 Env pseudovirus Du422, clone 1; test: Single-cycle assay TZM-bl, Env pseudovirus panel
[2] = test system: HIV-1 Env pseudovirus BJ613.W6M.ENV.E1; test: Single-cycle assay, Paired Infant and Maternal Env clones
[3] = test system: HIV-1 Env pseudovirus ZM109F.PB4; test: Single-cycle assay TZM-bl, Env pseudovirus panel
[4] = test system: HIV-1 Env pseudovirus BG505.W6M.ENV.C2; test: Single-cycle assay, Paired Infant and Maternal Env clones
[5] = test system: HIV-1 Env pseudovirus ML274.W0M.ENV.B1; test: as above
[6] = test system: HIV-1 Env pseudovirus HIV-16936-2, clone 21; test: Single-cycle assay TZM-bl, Env pseudovirus panel
[7] = test system: HIV-1 Env pseudovirus 1054.TC4.1499; test: Single-cycle assay TZM-bl, Env pseudovirus panel
[8] = test system: HIV-1 panel of Paired Infant (B) and Maternal (M) Env Molecular Clones; test: Single-cycle assay, means over Paired Infant and Maternal Env clones
[9] = test system: HIV-1 Env pseudovirus QB099.391M.ENV.C8; test: Single-cycle assay TZM-bl, Env pseudovirus panel
[10] = test system: HIV-1 Env pseudovirus Q259ENV.W6; test: Single-cycle assay TZM-bl, Env pseudovirus panel
[11] = test system: HIV-1 Env pseudovirus MI206.W0M.ENV.D1; test: Single-cycle assay, Paired Infant and Maternal Env clones
[12] = test system: HIV-1 Env pseudovirus WEAUd15.410.5017; test: Single-cycle assay TZM-bl, Env pseudovirus panel
[13] = test system: HIV-1 Env pseudovirus BG505-T332N; test: Single-cycle assay TZM-bl, Env pseudovirus panel
[14] = test system: HIV-1 Env pseudovirus BK184.W6M.ENV.D2; test: Single-cycle assay, Paired Infant and Maternal Env clones
[15] = test system: HIV-1 Env pseudovirus QA790.204I.ENV.C8; test: Single-cycle assay TZM-bl, Env pseudovirus panel
[16] = test system: HIV-1 Env pseudovirus B41; test: Single-cycle assay TZM-bl, Env pseudovirus panel
[17] = test system: HIV-1 Env pseudovirus MJ613.W0M.ENV.A2; test: Single-cycle assay, Paired Infant and Maternal Env clones
[18] = test system: HIV-1 Env pseudovirus 9021_14.B2.4571; test: Single-cycle assay TZM-bl, Env pseudovirus panel
[19] = test system: control pseudovirus VSV-G; test: microbe, parasite or virus in culture; format: cell-based
[20] = biological target: HIV-1 Reverse Transcriptase (RT) (Human immunodeficiency virus type 1 group M subtype B, UniProt P04585); test: biochemical; format: biochemical
[21] = test system: HIV-1 Env pseudovirus HIV-25711-2, clone 4; test: Single-cycle assay TZM-bl, Env pseudovirus panel
[22] = test system: HIV-1 Env pseudovirus HIV-00836-2, clone 5; test: Single-cycle assay TZM-bl, Env pseudovirus panel
[23] = test system: HIV-1 Env pseudovirus BL274.W6M.ENV.A3; test: Single-cycle assay, Paired Infant and Maternal Env clones
[24] = test system: HIV-1 Env pseudovirus CRF02_AG, clone 257; test: Single-cycle assay TZM-bl, Env pseudovirus panel
[25] = test system: HIV-1 Env pseudovirus CAP210.2.00.E8; test: Single-cycle assay TZM-bl, Env pseudovirus panel
[26] = test system: HIV-1 Env pseudovirus QB726.70M.ENV.C4; test: Single-cycle assay TZM-bl, Env pseudovirus panel
[27] = test system: HIV-1 Env pseudovirus TRO, clone 11; test: Single-cycle assay TZM-bl, Env pseudovirus panel
[28] = test system: HIV-1 Env pseudovirus MK184.W0M.ENV.E4; test: Single-cycle assay, Paired Infant and Maternal Env clones
[29] = test system: HIV-1 Env pseudovirus RHPA4259, clone 7; test: Single-cycle assay TZM-bl, Env pseudovirus panel
[30] = test system: HIV-1 Env pseudovirus QD435.100M.ENV.E1; test: Single-cycle assay TZM-bl, Env pseudovirus panel
[31] = test system: HIV-1 Env pseudovirus REJO4541, clone 67; test: Single-cycle assay TZM-bl, Env pseudovirus panel
[32] = test system: HIV-1 Env pseudovirus HIV-25925-2, clone 22; test: Single-cycle assay TZM-bl, Env pseudovirus panel
[33] = test system: HIV-1 Env pseudovirus B1206.W6P.ENV.A1A; test: Single-cycle assay, Paired Infant and Maternal Env clones
[34] = test system: HIV-1 Env pseudovirus THRO4156, clone 18; test: Single-cycle assay TZM-bl, Env pseudovirus panel

## Cc1nc([C@@H](CN)NC(=O)c2ccc(-c3ccc(F)c(F)c3)[nH]2)sc1CO (single isomer, unassigned) [NBD-14113, reference compound]
[1]; subtype C, NIH # 11308, Du422, clone 1, TZM-bl cells
  IC50: 3 ± 0.1 µM
[2]; subtype A, NIH # 11521-B (infant), BJ613.W6M.ENV.E1
  IC50: 2.8 ± 0.4 µM
[3]; subtype C, NIH # 11314, ZM109F.PB4, TZM-bl cells
  IC50: 1.9 ± 0.1 µM
[4]; subtype A, NIH # 11518-B (infant), BG505.W6M.ENV.C2
  IC50: 4.4 ± 0.3 µM
[5]; subtype A, NIH # 11540-M (maternal), ML274.W0M.ENV.B1
  IC50: 4.5 ± 0.6 µM
[6]; subtype C, NIH # 11504, HIV-16936-2, clone 21, TZM-bl cells
  IC50: 5.9 ± 0.2 µM
[7]; subtype B, NIH # 11561, 1054.TC4.1499, TZM-bl cells
  IC50: 3.6 ± 0.2 µM
[8]; read-out: IC50 Mean ± SEM: Infant (B), mean over infant clones
  IC50: 4.3e-06 ± 5e-07 M
[8]; read-out: IC50 Mean ± SEM: Mother, mean over maternal clones
  IC50: 4e-06 ± 4e-07 M
[9]; subtype C, NIH # 11909, QB099.391M.ENV.C8, TZM-bl cells
  IC50: 4 ± 0.3 µM
[10]; subtype A, NIH # 11887, Q259ENV.W6, TZM-bl cells
  IC50: 2.1 ± 0.3 µM
[11]; subtype A, NIH # 11531-M (maternal), MI206.W0M.ENV.D1
  IC50: 3.4 ± 0.2 µM
[12]; subtype B, NIH # 11578, WEAUd15.410.5017, R5X4-tropic virus, TZM-bl cells
  IC50: 3.7 ± 0.3 µM
[13]; subtype A, BG505-T332N, TZM-bl cells
  IC50: 3.3 ± 0.2 µM
[14]; subtype C/D, NIH # 11522-B (infant), BK184.W6M.ENV.D2
  IC50: 3.6 ± 0.2 µM
[15]; subtype A1/D, NIH # 11903, QA790.204I.ENV.C8, TZM-bl cells
  IC50: 4.3 ± 0.1 µM
[16]; subtype B, B41, TZM-bl cells
  IC50: 3.4 ± 0.1 µM
[17]; subtype A, NIH # 11534-M (maternal), MJ613.W0M.ENV.A2
  IC50: 4.9 ± 0.2 µM
[18]; subtype B, NIH # 11572, 9021_14.B2.4571, TZM-bl cells
  IC50: 3.2 ± 0.2 µM
[19]
  IC50: 26.3 ± 1.4 µM
[20]; HIV-1 Reverse Transcriptase, mean ± SD, n=3
  IC50: 45.9 ± 3.6 µM
[21]; subtype C, NIH # 11506, HIV-25711-2, clone 4, TZM-bl cells
  IC50: 4.7 ± 0.4 µM
[22]; subtype C, NIH # 11500, HIV-00836-2, clone 5, TZM-bl cells
  IC50: 4.3 ± 0.4 µM
[23]; subtype A, NIH # 11525-B (infant), BL274.W6M.ENV.A3
  IC50: 5.7 ± 0.3 µM
[24]; subtype AG, NIH # 11599, CRF02_AG, clone 257, TZM-bl cells
  IC50: 4.6 ± 0.5 µM
[25]; subtype C, NIH # 11317, CAP210.2.00.E8, TZM-bl cells
  IC50: 3.7 ± 0.1 µM
[26]; subtype A, NIH # 11888, QB726.70M.ENV.C4, TZM-bl cells
  IC50: 4 ± 0.2 µM
[27]; subtype B, NIH # 11023, TRO, clone 11, TZM-bl cells
  IC50: 5.1 ± 0.1 µM
[28]; subtype C/D, NIH # 11536-M (maternal), MK184.W0M.ENV.E4
  IC50: 2.6 ± 0.3 µM
[29]; subtype B, NIH # 11036, RHPA4259, clone 7, TZM-bl cells
  IC50: 3.7 ± 0.4 µM

## Cc1nc(C(CN)NC(=O)c2ccc(-c3ccc4c(c3)OCO4)[nH]2)sc1CO (stereo not drawn) [NBD-14110, N-(2-amino-1-(5-(hydroxymethyl)-4-methylthiazol-2-yl)ethyl)-5-(benzo[d][1,3]dioxol-5-yl)-1H-pyrrole-2-carboxamide]
[1]; TZM-bl
  IC50: 1.8 ± 0.2 µM
[2]
  IC50: 2.8 ± 0.1 µM
[3]; TZM-bl
  IC50: 4.9 ± 0.1 µM
[4]
  IC50: 4.8 ± 0.3 µM
[5]
  IC50: 7.1 ± 0.3 µM
[6]; TZM-bl
  IC50: 3.5 ± 0.1 µM
[7]; TZM-bl
  IC50: 4.2 ± 0.4 µM
[8]; Human immunodeficiency virus 1, read-out: IC50 Mean ± SEM: Infant (B)
  IC50: 4.8e-06 ± 8e-07 M
[8]; Human immunodeficiency virus 1, read-out: IC50 Mean ± SEM: Mother (M)
  IC50: 5.2e-06 ± 6e-07 M
[8]; Human immunodeficiency virus 1, read-out: IC50 Mean ± SEM: Overall (n=10)
  IC50: 5e-06 ± 5e-07 M
[30]
  IC50: 5.9 ± 0.4 µM
[9]; TZM-bl
  IC50: 4.3 ± 0.5 µM
[10]; TZM-bl
  IC50: 1.9 ± 0.2 µM
[31]
  IC50: 3.4 ± 0.3 µM
[32]
  IC50: 4.7 ± 0.1 µM
[11]
  IC50: 4.7 ± 0.2 µM
[12]; TZM-bl
  IC50: 1.6 ± 0.1 µM
[33]
  IC50: 5.6 ± 0.2 µM
[13]; TZM-bl
  IC50: 4.2 ± 0.5 µM
[34]
  IC50: 2.7 ± 0.2 µM
[14]
  IC50: 3.7 ± 0.6 µM
[15]; TZM-bl
  IC50: 2.4 ± 0.2 µM
[16]; TZM-bl
  IC50: 2 ± 0.1 µM
[17]
  IC50: 4.9 ± 0.1 µM
[18]; TZM-bl
  IC50: 4.5 ± 0.5 µM
[19]; Pseudovirus, U87/CD4/CCR5
  IC50: 51.6 ± 4.4 µM
[20]
  IC50: 30.6 ± 2.7 µM
[21]; TZM-bl
  IC50: 4.4 ± 0.4 µM
[22]; TZM-bl
  IC50: 1.7 ± 0.1 µM
[23]
  IC50: 7.2 ± 0.1 µM
[24]; TZM-bl
  IC50: 5.4 ± 0.2 µM
[25]; TZM-bl
  IC50: 5.5 ± 0.4 µM
[26]; TZM-bl
  IC50: 3.7 ± 0.3 µM
[27]; TZM-bl
  IC50: 2.4 ± 0.4 µM
[28]
  IC50: 3.4 ± 0.2 µM
[29]; TZM-bl
  IC50: 2.8 ± 0.3 µM
